From ChEMBL document CHEMBL1138246, “Ester prodrugs of cyclic 1-(S)-[3-hydroxy-2-(phosphonomethoxy)propyl]-5-azacytosine: synthesis and antiviral activity” (J Med Chem, 2007)
≈ marks a conversion by molar mass, not a printed value.

What was measured:
Human alphaherpesvirus 2 [1] = format: functional, organism-based; conditions: Human alphaherpesvirus 2, G, HEL
HEL [2] = experiment: Cytotoxicity against HEL cells assessed as alteration in morphology after 3 days; format: functional; conditions: Homo sapiens, 72 h
HEL [3] = experiment: Cytotoxicity against HEL cells assessed as cell growth after 3 days; format: functional, Homo sapiens; conditions: Homo sapiens, HEL, 72 h; read-out: CC50
HeLa = experiment: Cytotoxicity against HeLa cells assessed as alteration in morphology after 3 days; format: functional, cell-based; conditions: Homo sapiens, 72 h
Human alphaherpesvirus 2 [4] = format: functional, organism-based; conditions: Human alphaherpesvirus 2, Lyons, HEL
Human alphaherpesvirus 3 [5] = format: functional, organism-based; conditions: Human alphaherpesvirus 3, OKA, HEL
Human alphaherpesvirus 3 [6] = format: functional, organism-based; conditions: Human alphaherpesvirus 3, 07-1, HEL
Coxsackievirus B4 [7] = format: functional, organism-based; conditions: Enterovirus B, HeLa
Coxsackievirus B4 [8] = format: functional, organism-based; conditions: Enterovirus B, Vero
[9] = test system: Respiratory syncytial virus; format: functional, organism-based; conditions: human respiratory syncytial virus, HeLa
Human respirovirus 3 = experiment: Antiviral activity against Parainfluenza 3 in Vero cells reduction of virus-induced cytopathogenicity after 4 days; format: functional, organism-based; conditions: Human respirovirus 3, Vero, 96 h
[10] = test system: Mammalian orthoreovirus 1; experiment: Antiviral activity against Reovirus 1 in Vero cells reduction of virus-induced cytopathogenicity after 4 days; format: functional, organism-based; conditions: Mammalian orthoreovirus 1, Vero, 96 h
Sindbis virus = experiment: Antiviral activity against Sindbis virus in Vero cells reduction of virus-induced cytopathogenicity after 4 days; format: functional, organism-based; conditions: 96 h
Punta Toro virus = experiment: Antiviral activity against Punta Toro virus in Vero cells reduction of virus-induced cytopathogenicity after 4 days; format: functional, organism-based; conditions: 96 h
[11] = Cytotoxicity against Vero cells assessed as alteration in morphology after 3 days; format: cell-based, Chlorocebus sabaeus; conditions: chlorocebus sabaeus, Vero cells
[12] = test system: Vesicular stomatitis virus; experiment: microbe, parasite or virus in culture; conditions: HEL
[13] = test system: Vesicular stomatitis virus; experiment: microbe, parasite or virus in culture; conditions: HeLa
Human betaherpesvirus 5 [14] = format: functional, organism-based; conditions: Human betaherpesvirus 5, AD169, HEL
Human betaherpesvirus 5 [15] = format: functional, organism-based; conditions: Human betaherpesvirus 5, Davis, HEL
Human adenovirus 2 = format: functional, organism-based; conditions: Human mastadenovirus C, HEL
[16] = Cytotoxicity against HSB2 cells assessed as alteration in morphology after 3 days; format: functional, Homo sapiens, CCRF-HSB-2; conditions: Homo sapiens, CCRF-HSB-2, 72 h; read-out: MCC
[17] = test system: Human immunodeficiency virus 1; format: functional, organism-based; conditions: Human immunodeficiency virus 1, 3B, CCRF-CEM, 96 h
[18] = test system: Human immunodeficiency virus 2; format: functional, organism-based; conditions: Human immunodeficiency virus 2, ROD, CCRF-CEM, 96 h
[19] = Cytotoxicity against C3H cells assessed as alteration in morphology after 3 days; format: cell-based, Mus musculus; conditions: mouse, C3H cells
[20] = test system: Moloney murine sarcoma virus; conditions: C3H

Compound	EC50 (Human alphaherpesvirus 2 [1])	MCC (HEL [2])	CC50 (HEL [3])	MCC (HeLa)	EC50 (Human alphaherpesvirus 2 [4])	EC50 (Human alphaherpesvirus 3 [5])	EC50 (Human alphaherpesvirus 3 [6])	EC50 (Coxsackievirus B4 [7])	EC50 (Coxsackievirus B4 [8])	EC50 [9]	EC50 (Human respirovirus 3)	EC50 [10]	EC50 (Sindbis virus)	EC50 (Punta Toro virus)	MCC at 72 h [11]	EC50 [12]	EC50 [13]	EC50 (Human betaherpesvirus 5 [14])	EC50 (Human betaherpesvirus 5 [15])	EC50 [17]	further results
Nc1nc2c(ncn2COCCO)c(=O)[nH]1 [ACYCLOVIR]	0.05 µg/mL (≈ 0.222 µM)	> 100 µg/mL	212 µg/mL (≈ 941 µM)																		
O=c1[nH]c(=O)n([C@H]2C[C@H](O)[C@@H](CO)O2)cc1/C=C/Br [BRIVUDINE]	9 µg/mL (≈ 27 µM)	> 100 µg/mL	212 µg/mL (≈ 636 µM)	> 200 µg/mL	8.8 µg/mL (≈ 26.4 µM)	0.0022 µg/mL (≈ 0.0066 µM)	≥ 44.4 µg/mL	> 200 µg/mL	> 200 µg/mL	> 200 µg/mL	> 200 µg/mL	> 200 µg/mL	> 200 µg/mL	> 200 µg/mL	> 200 µg/mL	200 µg/mL (≈ 600 µM)	200 µg/mL (≈ 600 µM)				
Nc1ccn(C[C@@H](CO)OCP(=O)(O)O)c(=O)n1.O.O [CIDOFOVIR]	0.65 µg/mL	> 31.5 µg/mL	76 µg/mL	> 31.5 µg/mL	0.42 µg/mL	0.09 µg/mL	0.03 µg/mL	> 31.5 µg/mL	> 31.5 µg/mL	> 31.5 µg/mL	> 31.5 µg/mL	> 31.5 µg/mL	> 31.5 µg/mL	> 31.5 µg/mL	> 31.5 µg/mL	> 31.5 µg/mL	> 31.5 µg/mL	0.15 µg/mL	0.18 µg/mL	> 20 µg/mL	EC50 (Human adenovirus 2): 2 µg/mL; MCC [16]: 60 µg/mL; EC50 [18]: > 20 µg/mL; MCC at 72 h [19]: 20 µg/mL; EC50 [20]: > 4 µg/mL
Nc1ccn(C[C@H]2COP(=O)(O)CO2)c(=O)n1 [CYCLIC CIDOFOVIR]	0.76 µg/mL (≈ 2.91 µM)	> 100 µg/mL	≥ 76 µg/mL	> 200 µg/mL	0.45 µg/mL (≈ 1.72 µM)	0.12 µg/mL (≈ 0.459 µM)	0.04 µg/mL (≈ 0.153 µM)	> 200 µg/mL	> 200 µg/mL	> 200 µg/mL	> 200 µg/mL	> 200 µg/mL	> 200 µg/mL	> 200 µg/mL	> 200 µg/mL	> 200 µg/mL	> 200 µg/mL	0.21 µg/mL (≈ 0.804 µM)	0.22 µg/mL (≈ 0.842 µM)	> 20 µg/mL	EC50 [18]: > 20 µg/mL; MCC at 72 h [19]: 100 µg/mL; EC50 [20]: > 20 µg/mL
Nc1nc2c(ncn2COC(CO)CO)c(=O)[nH]1 [GANCICLOVIR]	0.0036 µg/mL (≈ 0.0141 µM)	> 100 µg/mL	122 µg/mL (≈ 478 µM)		0.0014 µg/mL (≈ 0.00549 µM)													1.68 µg/mL (≈ 6.58 µM)	1.29 µg/mL (≈ 5.05 µM)		
NC(=O)c1ncn([C@@H]2O[C@H](CO)[C@@H](O)[C@H]2O)n1 [RIBAVIRIN]		> 200 µg/mL		> 200 µg/mL				90 µg/mL (≈ 369 µM)	> 200 µg/mL	24 µg/mL (≈ 98.3 µM)	120 µg/mL (≈ 491 µM)	200 µg/mL (≈ 819 µM)	120 µg/mL (≈ 491 µM)	40 µg/mL (≈ 164 µM)	> 200 µg/mL	120 µg/mL (≈ 491 µM)	24 µg/mL (≈ 98.3 µM)				
